In patent publication US6187802A, “Substituted 4-arylmethylene-2-imino-2,3-dihydrothiazoles and derivatives and their pharmaceutical use” (Knoll Aktiengesellschaft, priority 1997, dated 2001):
Structures can show the parent of a compound that is named as a salt.

Legend:
[1] = biological target: T1, 5-hydroxytryptamine (5-HT) reuptake sites (Rattus norvegicus, UniProt P31652); test: displacement of [3H]paroxetine from 5-HT reuptake sites, frontal cortical membranes; format: binding; conditions: 10^-6 M test compound, [3H]paroxetine 30 pM, one test only; for inhibition at 1 µM: read-out: 5-HT uptake (% displacement of specific binding of tritiated ligand)
T1 construct: Frontal cortical tissue from the brains of male Sprague-Dawley rats; from tissue; host or cells: rat brain frontal cortex (crude synaptosomes in A2, washed membranes in A5)
T1 sequence (P31652 whole entry): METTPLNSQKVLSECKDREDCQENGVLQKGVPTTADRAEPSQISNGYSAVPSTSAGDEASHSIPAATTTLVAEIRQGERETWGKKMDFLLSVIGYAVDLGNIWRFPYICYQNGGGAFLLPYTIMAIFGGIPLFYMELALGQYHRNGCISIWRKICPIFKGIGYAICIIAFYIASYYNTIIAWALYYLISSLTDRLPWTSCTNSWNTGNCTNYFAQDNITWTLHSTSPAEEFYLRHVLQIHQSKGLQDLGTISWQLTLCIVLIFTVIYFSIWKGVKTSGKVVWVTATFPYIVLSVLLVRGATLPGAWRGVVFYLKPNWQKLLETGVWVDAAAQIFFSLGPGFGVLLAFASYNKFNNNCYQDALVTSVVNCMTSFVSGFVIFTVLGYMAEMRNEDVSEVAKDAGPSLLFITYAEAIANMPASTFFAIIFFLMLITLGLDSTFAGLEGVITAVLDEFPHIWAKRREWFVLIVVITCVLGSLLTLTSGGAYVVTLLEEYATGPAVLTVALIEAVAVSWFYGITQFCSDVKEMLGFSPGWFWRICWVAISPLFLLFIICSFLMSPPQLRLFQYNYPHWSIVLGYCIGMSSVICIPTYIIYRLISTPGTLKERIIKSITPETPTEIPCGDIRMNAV
Experimental: Frontal cortical tissue from the brains of male Charles River rats weighing 150-250 g was homogenised in ice-cold 0.25M sucrose (1:30 w/v) using a Kinematic polytron (speed setting 6 for 30 seconds) and centrifuged at 1000 g for 12 minutes. The supernatant was stored on ice and the pellet was resuspended in 0.25M sucrose (1:20 w/v) and centrifuged at 850 g for 10 minutes. Combined supernatants were diluted to 1:100 w/v with ice-cold 50 mM Tris-HCl, pH 7.5 (at 25° C.) containing 120 mM sodium chloride and 5 mM potassium chloride (Tris buffer) and centrifuged at 40,000 g for 10 minutes. The resulting pellet was resuspended in 50 mM Tris buffer (1:100 w/v) and recentrifuged at 40,000 g for 10 minutes. The final pellet was resuspended in 50 mM Tris buffer (equivalent to 2 mg wet weight of tissue/ml) and used immediately in the binding assay. All centrifugations were carried out at 4° C.
Membranes (1000 μl; equivalent to 2 mg wet weight of tissue/tube) were incubated with 200 μl [^3 H]paroxetine at a single concentration of 30 pM and 200 μl of distilled water (total binding) or 200 μl of test compound (10^-6 M) or 200 μl of citalopram (1 μM; non-specific binding) for 2 h at 22° C.
Membrane bound radioactivity was recovered by filtration under vacuum through Whatman GFIC filters using a Brandel cell harvester. Filters were rapidly washed with 16 ml ice-cold 50 mM Tris buffer and radioactivity determined by liquid scintillation counting (2 ml Packard MV Gold scintillator).
(§1) For each of these tests measuring the ability of compounds of Formula I to displace standard ligands from dopamine (DA), 5-hydroxytryptamine (5-HT) and noradrenaline (NA) reuptake sites in vitro, the percentage displacement of specific binding of tritiated ligand by 10^-6 M test compound was calculated in the following way:
(§2) Firstly, specific binding of tritiated ligand in the absence (A) and presence (B) of test compound was determined:
(§3) In the absence of compound:
(§4) A (dpm)=Total binding (dpm)-Non-specific binding (dpm)
(§5) In the presence of compound (10^-6 M):
(§6) B (dpm)=Binding at 10^-6 M (dpm)-Non-specific binding (dpm)
(§7) The specific binding of tritiated ligand in the presence (B) of compound was then converted to a percentage of specific binding of tritiated ligand in the absence (A) of compound:
(§8) % Specific binding at 10^-6 M=B (dpm)/A(dpm)×100
(§9) The percentage displacement of specific binding of trtiated ligand by the test compound (10^-6 M) was then obtained by subtraction of the percentage specific binding in the presence of compound from the percentage specific binding in the absence of compound, which is taken as the maximum binding and so equals 100%:
(§10) % Displacement at 10^-6 M=100-% Specific binding at 10^-6 M.
(§11) The values given below in Table 2 for examples 6 to 76 are % displacement of specific binding of tritiated ligand by 10^-6 M test compound and represent results from one test only. IA refers to <50% displacement.

[2] = biological target: T2, dopamine (DA) reuptake sites (Rattus norvegicus, UniProt P23977); test: displacement of [3H]GBR 12935 from dopamine reuptake sites, striatal membranes; format: binding; conditions: 10^-6 M test compound, [3H]GBR 12935 1 nM, one test only; for inhibition at 1 µM: read-out: DA uptake (% displacement of specific binding of tritiated ligand)
T2 construct: Striatal tissue from the brains of male Charles River rats weighing 150-250 g; from tissue; host or cells: rat brain striatum (crude synaptosomes in A1, washed membranes in A4)
T2 sequence (P23977 whole entry): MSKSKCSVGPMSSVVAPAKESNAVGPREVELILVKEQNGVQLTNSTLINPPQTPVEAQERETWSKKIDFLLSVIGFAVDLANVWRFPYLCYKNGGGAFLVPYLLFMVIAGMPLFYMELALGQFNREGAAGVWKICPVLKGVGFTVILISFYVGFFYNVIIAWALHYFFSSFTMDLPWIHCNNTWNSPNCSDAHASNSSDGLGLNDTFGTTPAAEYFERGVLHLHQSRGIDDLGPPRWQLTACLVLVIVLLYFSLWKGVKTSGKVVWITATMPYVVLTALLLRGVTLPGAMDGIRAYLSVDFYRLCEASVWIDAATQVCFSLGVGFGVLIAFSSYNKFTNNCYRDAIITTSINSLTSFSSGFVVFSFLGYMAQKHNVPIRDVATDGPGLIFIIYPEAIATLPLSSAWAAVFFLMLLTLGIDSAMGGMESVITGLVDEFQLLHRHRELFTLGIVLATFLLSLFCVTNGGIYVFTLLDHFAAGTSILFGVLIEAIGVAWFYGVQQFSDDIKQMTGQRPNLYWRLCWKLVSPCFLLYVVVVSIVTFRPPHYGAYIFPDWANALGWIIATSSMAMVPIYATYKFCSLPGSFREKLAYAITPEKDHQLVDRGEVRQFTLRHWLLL
Experimental: Striatal tissue from the brains of male Charles River rats weighing 150-250 g was homogenised in ice-cold 0.32M sucrose (1:80 w/v) using a motor driven teflon pestle (12 strokes, 800 rpm) and centrifuged at 1000 g for 12 minutes. The supernatant was stored on ice and the pellet was resuspended in 0.32M sucrose (1:80 w/v) and centrifuged at 850 g for 10 minutes. Combined supernatants were diluted to 1:320 w/v with ice-cold 50 mM Tris-HCl, pH 7.4 (at 25° C.) containing 200 mM sodium chloride and 5 mM potassium chloride (Tris buffer) and centrifuged at 40,000 g for 10 minutes. The resulting pellet was resuspended in 10 ml of 50 mM Tris buffer, incubated at 37° C. for 10 min, diluted in 50 mM Tris buffer (1:320 w/v) and recentrifuged at 40,000 g for 10 minutes. The final pellet was resuspended in 50 mM Tris buffer (equivalent to 1.25 mg wet weight of tissue/ml) and used immediately in the binding assay. All centrifugations were carried out at 4° C.
Membranes (800 μl; equivalent to 1 mg wet weight of tissue/tube) were incubated with 100 μl [^3 H]GBR 12935 at a single concentration of 1 nM and 100 μl of distilled water (total binding) or 100 μl of test compound (10^-6 M) or 100 μl of mazindol (1 μM; non-specific binding) for 90 min at 4° C.
Membrane bound radioactivity was recovered by filtration under vacuum through Whatman GF/C filters, pre-soaked for 1 h in 0.5% polyethylenimine,using a Brandel cell harvester. Filters were rapidly washed with 16 ml of ice-cold 50 mM Tris-HCl, pH 7.4 and radioactivity determined by liquid scintillation counting (2 ml Packard MV Gold scintillator).
as §1, §2, §3, §4, §5, §6, §7, §8, §9, §10, §11

[3] = biological target: T3, noradrenaline (NA) reuptake sites (Rattus norvegicus, UniProt Q63380); test: displacement of [3H]nisoxetine from noradrenaline reuptake sites, frontal cortical membranes; conditions: 10^-6 M test compound, [3H]nisoxetine 0.6 nM, one test only, read-out: NA uptake (% displacement of specific binding of tritiated ligand)
T3 construct: Frontal cortical tissue from the brains of male Sprague-Dawley rats; from tissue; host or cells: rat brain frontal cortex (crude synaptosomes in A3, washed membranes in A6)
T3 sequence (Q63380 1-617): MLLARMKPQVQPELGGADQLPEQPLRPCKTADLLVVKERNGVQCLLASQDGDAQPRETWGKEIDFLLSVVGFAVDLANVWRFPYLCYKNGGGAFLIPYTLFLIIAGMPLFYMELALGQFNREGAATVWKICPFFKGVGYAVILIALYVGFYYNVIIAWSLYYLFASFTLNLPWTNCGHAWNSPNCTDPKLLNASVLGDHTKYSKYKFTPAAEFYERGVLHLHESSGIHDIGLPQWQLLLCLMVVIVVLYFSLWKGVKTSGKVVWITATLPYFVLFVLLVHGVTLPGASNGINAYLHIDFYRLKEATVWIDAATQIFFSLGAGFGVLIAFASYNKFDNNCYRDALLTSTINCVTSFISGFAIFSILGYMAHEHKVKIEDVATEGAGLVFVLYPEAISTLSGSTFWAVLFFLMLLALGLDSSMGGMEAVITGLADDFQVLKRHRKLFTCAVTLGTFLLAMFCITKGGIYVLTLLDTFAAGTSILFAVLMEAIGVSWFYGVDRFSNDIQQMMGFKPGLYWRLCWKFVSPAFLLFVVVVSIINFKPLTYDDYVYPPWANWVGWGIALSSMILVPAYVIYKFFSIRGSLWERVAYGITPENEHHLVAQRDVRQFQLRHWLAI
Experimental: Frontal cortical tissue from the brains of male Charles River rats weighing 150-250 g was homogenised in ice-cold 50 mM Tris-HCl, pH 7.4 (at 25° C.) containing 120 mM sodium chloride and 5 mM potassium chloride (Tris buffer; 1:60 w/v) using a Kinematic polytron (speed setting 6 for 30 seconds) and centrifuged at 40,000 g for 10 minutes. The supernatant was discarded and the pellet rehomogenised in Tris buffer, 1:60 w/v, and centrifuged at 40,000 g for 10 minutes. This step was repeated twice more so that, in total, the brain tissue was homogenised and centrifuged four times. The final pellet was resuspended in 50 mM Tris-HCl, pH 7.4 containing 300 mM sodium chloride and 5 mM potassium chloride (equivalent to 25 mg wet weight of tissue/ml) and used immediately in the binding assay. All centrifugations were performed at 4° C.
Membranes (400 μl; equivalent to 10 mg wet weight of tissue/tube) were incubated with 50 μl [^3 H]nisoxetine at a single concentration of 0.6 nM and 50 μl of distilled water (total binding) or 50 μl of test compound (10^-6 M) or 50 μl of mazindol (1 μM; non-specific binding) for 4 h at 4° C.
Membrane bound radioactivity was recovered by filtration under vacuum through Skatron 11734 filters using a Skatron cell harvester. Filters were rapidly washed with ice-cold 50 mM Tris-HCl, pH 7.4 containing 120 mM sodium chloride and 5 mM potassium chloride (wash setting 9,9,0) and radioactivity determined by liquid scintillation counting (1 ml Packard MV Gold scintillator).
as §1, §2, §3, §4, §5, §6, §7, §8, §9, §10, §11

SMILES | 5-HT uptake (% displacement of specific binding of tritiated ligand) ([1]; 1 µM, hydrobromide) [%] | DA uptake (% displacement of specific binding of tritiated ligand) ([2]; hydrobromide, 1 µM) [%] | inhibition at 1 µM [3] [%] | inhibition at 1 µM [1] [%] | inhibition at 1 µM [2] [%]
Br.CC(C)(C1=CSC2=NCCN12)c1ccc(Cl)c(Cl)c1 [Example 74, 3-[1-(3,4-Dichlorophenyl)-1-methylethyl]-5,6-dihydroimidazo[2,1-b]thiazole hydrobromide] | 52 | 97 |  |  | 
Cc1ccc(N=c2scc(C3(c4ccc5ccccc5c4)CCC3)n2-c2ccc(C)cc2)cc1 [Example 50, 4-[1-(2-Naphthyl)cyclobutyl]-3-(p-tolyl)-2-(p-tolylimino)-2,3-dihydrothiazole hydrobromide] |  |  | < 50 | < 50 | 68
CCCN=c1scc(C2(c3ccc4ccccc4c3)CCC2)n1CCC [Example 38, 4-[-(2-Naphthyl)cyclobutyl]-3-propyl-2-propylimino-2,3-dihydrothiazole hydrobromide] |  |  | 95 | 102 | 111
CC(C)(C1=CSC2=NCCN12)c1ccc(Cl)c(Cl)c1 [Example 11, 3-[1-(3,4-dichlorophenyl)-1-methylethyl]-5,6-dihydroimidazo[2,1-b]-thiazole hydrobromide] |  |  | < 50 | 57 | 102
CSc1ccc(C2(C3=CSC4=NCCN34)CCC2)cc1 [Example 76, 3-[1-(4-Methylthiophenyl)cyclobutyl]-5,6-dihydroimidazo[2,1-b]thiazole hydrobromide] |  |  | < 50 | 81 | < 50
Cc1ccc(N=c2scc(C3(c4ccc(Cl)c(Cl)c4)CCC3)n2-c2ccc(C)cc2C)c(C)c1 [Example 31, 4-[1-(3,4-Dichlorophenyl)cyclobutyl]-3-(2,4-xylyl)-2-(2,4-xylylimino)-2,3-dihydrothiazole hydrobromide] |  |  | < 50 | < 50 | 63
C=CCN=c1scc(C2(c3ccc4ccccc4c3)CCC2)n1CC=C [Example 42, 3-Allyl-2-allylimino-4-[1-(2-naphthyl)cyclobutyl]-2,3-dihydrothiazole hydrobromide] |  |  | 93 | 101 | 113
Clc1ccc(C2(C3=C(Cc4ccccc4)SC4=NCCN43)CCC2)cc1 [Example 7, 2-benzyl-3-[1-(4-chlorophenyl)cyclobutyl]-5,6-dihydroimidazo[2,1-b]-thiazole hydrobromide] |  |  | < 50 | 85 | 69
CC(C)CN=c1scc(C2(c3ccc4ccccc4c3)CCC2)n1CC(C)C [Example 41, 3-lsobutyl-2-isobutylimino-4-[1-(2-naphthyl)cyclobutyl]-2,3-dihydrothiazolehydrobromide] |  |  | 79 | 98 | 107
c1coc(CN=c2scc(C3(c4ccc5ccccc5c4)CCC3)n2Cc2ccco2)c1 [Example 48, 3-Furfuryl-2-furfurylimino-4-[1-(2-naphthyl)cyclobutyl]-2,3-dihydrothiazolehydrobromide] |  |  | < 50 | 94 | 101
Clc1ccc(C2(c3csc(=NCc4ccco4)n3Cc3ccco3)CCC2)cc1Cl [Example 26, 4-[1-(3,4-Dichlorophenyl)cyclobutyl]-3-furfuryl-2-furfurylimino-2,3-dihydrothiazole hydrobromide] |  |  | < 50 | 92 | 116
CCCN=c1scc(C2(c3ccc(Cl)c(Cl)c3)CCC2)n1CCC [Example 16, 4-[1-(3,4-Dichlorophenyl)cyclobutyl]-3-propyl-2-propylimino-2,3-dihydrothiazole hydrobromide] |  |  | 56 | 102 | 116
CCCCN=c1scc(C(C)(C)c2ccc(Cl)c(Cl)c2)n1CCCC [Example 63, 3-Butyl-2-butylimino-4-[1-(3,4-dichlorophenyl)-1-methylethyl]-2,3-dihydrothiazole hydrobromide] |  |  | < 50 | 52 | 107
